US11014902B2, “MYC G-quadruplex stabilizing small molecules and their use” (The United States of America, as represented by the …, priority 2015, dated 2021)
“Also recorded” adds a separate entry of the source.

Assays:
KRAS, VEGF G4s = experiment: Biophysical measurements of compound affinity, KRAS and VEGF G4s; type: binding
myeloma cells = experiment: Apoptosis (Annexin V/7-AAD staining, FACS); type: cell-based, human; conditions: 10 μM, 72 h
Experimental: (§1) To further explore the mechanism of action for the anticancer activity of Compound 1, cell cycle analysis was performed and monitored for potential induction of apoptotic death. […] Additionally, minimal increases in apoptosis were observed, by Annexin V/7-AAD staining and FACS analysis; only 13% of the cells were undergoing apoptosis (FIG. 5B).

c-Myc protein = c-Myc protein translation in myeloma cells (Western blot); type: cell-based, human; conditions: 10 μM, maintained over 72 hours
Experimental: (§2) Since two thirds of multiple myeloma cases involve deregulated c-MYC expression (Kuehl and Bergsagel, Blood 2012, 120, 2351; Shou, et al., Proc Natl Acad Sci USA 2000, 97, 228), we elected to evaluate the cell viability effects of Compound 1 in a multiple myeloma model. […] This suppression was maintained over 72 hours, which is notable given the characteristic rapid replenishment of the protein—a phenomenon that complicates targeting c-Myc at the protein level (FIG. 4C). This effect was maintained across a genetically diverse set of 4 multiple myeloma lines. We observed decreases in c-MYC translation in all lines tested, and this effect also correlated with decreases in viability (FIG. 4D).
Cell pellets/tissue were homogenized and lysed in RIPA buffer on ice for 1 h. Protein was quantitated by BCA, and equal protein was loaded onto 4-12% Bis-Tris Gels (Novex), electrophoresed at 150 V for 75 min to obtain sufficient separation, and transferred via the iBlot system (Life Technologies). Successful transfer and uniform loading was confirmed by Ponceau S staining (Thermo Scientific). Blots were blocked in 10% dry milk in TBST, incubated with primary monoclonal antibodies in 5% BSA at concentrations designated by the manufacturer, and gently rotated at 4° C. overnight. […]

[1] = test system: c-MYC expression in CA46 cells; experiment: c-MYC expression in CA46 Burkitt's Lymphoma line; type: cell-based, human; conditions: CA46 line lacking G4 control
Source text: To confirm a G4 specific mechanism of action in cells, the CA46 Burkitt's Lymphoma line was used in an exon-specific assay, as previously reported (Boddupally, et al., J Med Chem 2012, 55, 6076). For most cell lines, 85-90% of c-Myc expression is controlled by the G4 located prior to exons 1 and 2 in the promoter. Furthermore, expression predominantly occurs following exon 2, due to a thousand-fold increase in transcription from this allele (Brown, et al., J Biol Chem 2011, 286, 41018). The CA46 Burkitt's Lymphoma cell line is an exception to this trend due to the existence of a chromosome (8:14) (Pelicci, et al., Proc Natl Acad Sci USA 1986, 83, 2984) translocation between exons 1 and 2, leaving exon 1 under G4 control. As a result, c-Myc expression from exon 2 is G4 independent (FIG. 3B). This renders the overall cell line resistant to G4-mediated c-Myc inhibition at the RNA and protein level, and proliferation should be uninhibited by G4-stabilizing agents. […]
Cell pellets/tissue were homogenized and lysed in RIPA buffer on ice for 1 h. Protein was quantitated by BCA, and equal protein was loaded onto 4-12% Bis-Tris Gels (Novex), electrophoresed at 150 V for 75 min to obtain sufficient separation, and transferred via the iBlot system (Life Technologies). […]

[2] = test system: c-MYC exon 2 transcription in CA46 cells; experiment: Exon specific qPCR assay, exon 2; type: cell-based, human; conditions: 10 μM, up to 48 hours
Source text: To confirm a G4 specific mechanism of action in cells, the CA46 Burkitt's Lymphoma line was used in an exon-specific assay, as previously reported (Boddupally, et al., J Med Chem 2012, 55, 6076). For most cell lines, 85-90% of c-Myc expression is controlled by the G4 located prior to exons 1 and 2 in the promoter. Furthermore, expression predominantly occurs following exon 2, due to a thousand-fold increase in transcription from this allele (Brown, et al., J Biol Chem 2011, 286, 41018). The CA46 Burkitt's Lymphoma cell line is an exception to this trend due to the existence of a chromosome (8:14) (Pelicci, et al., Proc Natl Acad Sci USA 1986, 83, 2984) translocation between exons 1 and 2, leaving exon 1 under G4 control. As a result, c-Myc expression from exon 2 is G4 independent (FIG. 3B). This renders the overall cell line resistant to G4-mediated c-Myc inhibition at the RNA and protein level, and proliferation should be uninhibited by G4-stabilizing agents.
CA46 cells were treated with ligands of interest or DMSO control at designated time points, washed in PBS, flash frozen, and RNA isolated using the Qiagen RNeasy Kit. RNA was quantified by NanoDrop, and 0.5 μg was reverse transcribed for use in qPCR. […]

RB1, BCL2 G4s = experiment: Biophysical measurements of compound affinity, RB1 and BCL2 G4s; type: binding
[3] = target: c-MYC G4 DNA (biotin-labeled Pu22 G-quadruplex); experiment: Surface plasmon resonance (SPR); type: binding; conditions: SPR, 25° C.; read-out: equilibrium dissociation constant (Kd)
Experimental: In order to quantitatively assess the binding affinity of Compound 1 with the c-MYC G4, surface plasmon resonance (SPR) experiments (De Crescenzo, et al., Cell Mol Bioeng 2008, 1, 204) were performed using a biotinylated c-MYC G4 oligonucleotide. The oligonucleotide was immobilized to a streptavidin-coated chip, and binding was measured as a function of concentration. (FIG. 2). […] Furthermore, Compound 1 interacts with quadruplex DNA through a reversible binding interaction, and rapid, complete dissociation can be observed in the sensogram (FIG. 2C).
SPR experiments were performed with a Biacore T200 (GE Healthcare). […] The c-MYC DNA was then captured (FC2: 1245 Ru) on a Series S Sensor CM5 Chip (GE Healthcare) with amine-coupled Neutravidin (FC1: 4466 Ru, FC2: 5458 Ru). Single Cycle Kinetics (SCK) experiments were carried out with five injections of increasing concentration of analyte solution, which was prepared by a three-fold serial dilution of compound with buffer (10 mM Tris pH 7.5, 100 mM KCl, 3 mM EDTA) containing 3% DMSO. Binding analysis was conducted at a flow rate of 30 μL/min at 25° C. In each run, the association phase and the subsequent dissociation phase were monitored for 1 min and 10 min, respectively. Prior to each compound injection, three buffer injections were made. […]

L363 cells = experiment: Cell cycle analysis (propidium iodide staining); type: cell-based, human; conditions: 10 μM, after 72 hours
Experimental: as §1

c-Myc transcription = c-Myc transcription in myeloma cells (qPCR); type: cell-based, human; conditions: 10 μM, after 24 hours
Experimental: as §2

In the case of `Cc1ccc(NC(=O)c2c(C)oc3ccc(O)c(CN4CCCCCC4)c23)cc1` [Compound 1], the G4 binding (KRAS, VEGF G4s) is reported as “complete lack of G4 binding”, the cells undergoing apoptosis (myeloma cells) is reported as 13% and the c-Myc protein translation (c-Myc protein) is reported as “significantly inhibited”. The “c-MYC expression / protein translation” value [1] was “resistant to inhibition of c-Myc protein translation; also recorded: negligible changes”, the “transcription from exon 2” value [2] was “unaffected” and the “G4 binding relative to MYC” value (RB1, BCL2 G4s) was “weaker binding”. For the same compound, the Kd [3] was 4.5 ± 1.4 µM, the “treated cells arrested in the G1 phase” value (L363 cells) was ~85% and the “decrease in c-Myc transcription” value (c-Myc transcription) was “seven-fold decrease”.
